Measurements published in ChEMBL document CHEMBL3596148, “Meridianin derivatives as potent Dyrk1A inhibitors and neuroprotective agents” (Bioorg Med Chem Lett, 2015).

Experiments:
[1] = target: Glycogen synthase kinase-3 beta (Homo sapiens) (UniProt P49841); test: Inhibition of GSK3beta (unknown origin) at 0.5 uM relative to control
[2] = target: AMP-activated protein kinase, AMPK (Homo sapiens) (UniProt P54646+O43741+P54619+Q9UGJ0+Q9Y478+Q13131+Q9UGI9); test: Inhibition of AMPK (unknown origin) at 0.5 uM relative to control; assay type: protein-complex assay
[3] = target: Insulin-like growth factor 1 receptor (Homo sapiens) (UniProt P08069); test: Inhibition of IGF-1R (unknown origin) at 0.5 uM relative to control
[4] = target: RAC-alpha serine/threonine-protein kinase (Homo sapiens) (UniProt P31749); test: Inhibition of PKBalpha (unknown origin) at 0.5 uM relative to control
[5] = target: Insulin receptor (Homo sapiens) (UniProt P06213); test: Inhibition of IR (unknown origin) at 0.5 uM relative to control
[6] = target: T1, Dual specificity tyrosine-phosphorylation-regulated kinase 3 (Homo sapiens, UniProt O43781); test: Inhibition of Dyrk3 (unknown origin) using Woodtide as substrate after 30 mins by P81 membrane assay in presence of [33P]-g-ATP
T1 sequence (O43781 whole entry): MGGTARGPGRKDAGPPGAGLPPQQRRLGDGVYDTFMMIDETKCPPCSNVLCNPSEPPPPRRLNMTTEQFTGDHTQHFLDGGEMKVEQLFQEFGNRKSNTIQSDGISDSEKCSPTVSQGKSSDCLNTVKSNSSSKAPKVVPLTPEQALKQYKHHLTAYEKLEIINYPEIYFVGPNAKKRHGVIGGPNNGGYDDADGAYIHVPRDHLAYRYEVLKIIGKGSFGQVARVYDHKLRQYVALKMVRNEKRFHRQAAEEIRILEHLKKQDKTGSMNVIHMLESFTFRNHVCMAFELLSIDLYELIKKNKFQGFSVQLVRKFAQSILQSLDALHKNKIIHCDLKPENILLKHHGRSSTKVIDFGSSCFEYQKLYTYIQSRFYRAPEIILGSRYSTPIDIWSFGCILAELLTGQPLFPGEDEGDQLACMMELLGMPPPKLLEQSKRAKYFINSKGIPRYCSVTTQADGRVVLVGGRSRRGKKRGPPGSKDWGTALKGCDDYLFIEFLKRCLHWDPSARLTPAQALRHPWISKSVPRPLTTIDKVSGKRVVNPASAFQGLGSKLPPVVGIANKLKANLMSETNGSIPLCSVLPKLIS

[7] = target: Tyrosine-protein kinase ABL1 (Homo sapiens) (UniProt P00519); test: Inhibition of Abl (unknown origin) at 0.5 uM relative to control
[8] = target: Dual specificity tyrosine-phosphorylation-regulated kinase 1A (Homo sapiens, UniProt Q13627); test: Inhibition of Dyrk1A (unknown origin) using Woodtide as substrate after 30 mins by P81 membrane assay in presence of [33P]-g-ATP
[9] = target: T2, Aurora kinase A (Homo sapiens) (UniProt O14965); test: Inhibition of Aurora A (unknown origin) at 0.5 uM relative to control
T2 sequence (whole entry): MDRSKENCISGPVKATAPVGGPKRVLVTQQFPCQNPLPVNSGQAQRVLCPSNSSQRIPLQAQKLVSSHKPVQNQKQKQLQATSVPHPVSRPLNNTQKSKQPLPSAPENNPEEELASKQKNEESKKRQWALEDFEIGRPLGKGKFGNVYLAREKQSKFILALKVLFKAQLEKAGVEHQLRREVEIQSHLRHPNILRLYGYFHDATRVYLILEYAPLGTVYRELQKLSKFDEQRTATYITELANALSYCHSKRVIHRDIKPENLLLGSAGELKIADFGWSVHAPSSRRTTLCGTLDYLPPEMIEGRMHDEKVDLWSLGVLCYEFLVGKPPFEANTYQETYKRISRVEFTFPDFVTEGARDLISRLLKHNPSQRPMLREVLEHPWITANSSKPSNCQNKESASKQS

SH-SY5Y [10] = test: cells; details: Homo sapiens, 24 h
SH-SY5Y [11] = test: Neuroprotective activity against glutamate-induced neurotoxicity in human SH-SY5Y cells assessed as cell viability at 50 uM incubated for 30 mins prior to glutamate challenge measured after 24 hrs by MTT assay (reference value: 73.8 +/- 4.5%); assay type: functional; details: read-out: Activity
[12] = target: Cyclin-dependent kinase 9 (Homo sapiens) (UniProt P50750); test: Inhibition of CDK9 (unknown origin) at 0.5 uM relative to control
[13] = target: Protein kinase C alpha type (Homo sapiens) (UniProt P17252); test: Inhibition of PKCalpha (unknown origin) at 0.5 uM relative to control
[14] = Cytotoxicity against human SH-SY5Y cells assessed as cell viability at 30 uM after 24 hrs by MTT assay relative to control; assay type: cell-based; details: read-out: Activity
[15] = target: Aurora kinase B (Homo sapiens) (UniProt Q96GD4); test: Inhibition of Aurora B (unknown origin) at 0.5 uM relative to control
[16] = target: Casein kinase I isoform alpha (Homo sapiens) (UniProt P48729); test: Inhibition of CK1 (unknown origin) at 0.5 uM relative to control
[17] = target: T3, Dual specificity tyrosine-phosphorylation-regulated kinase 2 (Homo sapiens, UniProt Q92630); test: Inhibition of Dyrk2 (unknown origin) using Woodtide as substrate after 30 mins by P81 membrane assay in presence of [33P]-g-ATP
T3 sequence (Q92630 whole entry): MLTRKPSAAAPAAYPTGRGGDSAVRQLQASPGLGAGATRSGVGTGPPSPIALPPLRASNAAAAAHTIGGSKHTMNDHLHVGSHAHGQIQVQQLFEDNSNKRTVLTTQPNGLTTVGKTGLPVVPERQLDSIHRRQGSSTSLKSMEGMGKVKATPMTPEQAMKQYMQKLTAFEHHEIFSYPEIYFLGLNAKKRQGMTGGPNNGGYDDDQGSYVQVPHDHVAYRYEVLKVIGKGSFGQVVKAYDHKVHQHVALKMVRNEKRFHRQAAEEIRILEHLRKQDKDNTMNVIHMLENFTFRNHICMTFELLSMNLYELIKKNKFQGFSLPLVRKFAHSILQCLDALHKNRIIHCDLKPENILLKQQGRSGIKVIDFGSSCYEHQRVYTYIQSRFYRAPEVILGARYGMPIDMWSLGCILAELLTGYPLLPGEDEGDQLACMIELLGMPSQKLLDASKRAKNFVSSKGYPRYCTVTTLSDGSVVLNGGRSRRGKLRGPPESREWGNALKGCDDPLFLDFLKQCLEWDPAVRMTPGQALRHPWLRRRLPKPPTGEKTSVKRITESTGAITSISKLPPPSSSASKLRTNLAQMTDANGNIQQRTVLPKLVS

[18] = target: Vascular endothelial growth factor receptor 1 (Homo sapiens) (UniProt P17948); test: Inhibition of VEGFR1 (unknown origin) at 0.5 uM relative to control
[19] = target: RAC-beta serine/threonine-protein kinase (Homo sapiens) (UniProt P31751); test: Inhibition of PKBbeta (unknown origin) at 0.5 uM relative to control
Sequence of RAC-beta serine/threonine-protein kinase (Homo sapiens) (P31751 whole entry): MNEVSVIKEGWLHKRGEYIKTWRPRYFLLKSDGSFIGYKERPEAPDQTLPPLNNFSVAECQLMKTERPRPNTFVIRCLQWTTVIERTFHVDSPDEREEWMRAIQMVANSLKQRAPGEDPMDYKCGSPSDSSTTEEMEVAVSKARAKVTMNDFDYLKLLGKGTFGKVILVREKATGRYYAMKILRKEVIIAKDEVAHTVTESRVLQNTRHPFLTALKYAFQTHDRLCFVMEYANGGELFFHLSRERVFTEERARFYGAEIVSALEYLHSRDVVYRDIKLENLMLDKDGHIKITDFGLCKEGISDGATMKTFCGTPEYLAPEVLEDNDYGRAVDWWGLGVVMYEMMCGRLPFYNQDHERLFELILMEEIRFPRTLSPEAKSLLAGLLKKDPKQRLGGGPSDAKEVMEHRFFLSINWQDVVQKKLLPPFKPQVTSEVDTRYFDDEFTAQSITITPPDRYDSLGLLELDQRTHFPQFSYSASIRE

Sequence of Tyrosine-protein kinase ABL1 (Homo sapiens) (P00519 whole entry): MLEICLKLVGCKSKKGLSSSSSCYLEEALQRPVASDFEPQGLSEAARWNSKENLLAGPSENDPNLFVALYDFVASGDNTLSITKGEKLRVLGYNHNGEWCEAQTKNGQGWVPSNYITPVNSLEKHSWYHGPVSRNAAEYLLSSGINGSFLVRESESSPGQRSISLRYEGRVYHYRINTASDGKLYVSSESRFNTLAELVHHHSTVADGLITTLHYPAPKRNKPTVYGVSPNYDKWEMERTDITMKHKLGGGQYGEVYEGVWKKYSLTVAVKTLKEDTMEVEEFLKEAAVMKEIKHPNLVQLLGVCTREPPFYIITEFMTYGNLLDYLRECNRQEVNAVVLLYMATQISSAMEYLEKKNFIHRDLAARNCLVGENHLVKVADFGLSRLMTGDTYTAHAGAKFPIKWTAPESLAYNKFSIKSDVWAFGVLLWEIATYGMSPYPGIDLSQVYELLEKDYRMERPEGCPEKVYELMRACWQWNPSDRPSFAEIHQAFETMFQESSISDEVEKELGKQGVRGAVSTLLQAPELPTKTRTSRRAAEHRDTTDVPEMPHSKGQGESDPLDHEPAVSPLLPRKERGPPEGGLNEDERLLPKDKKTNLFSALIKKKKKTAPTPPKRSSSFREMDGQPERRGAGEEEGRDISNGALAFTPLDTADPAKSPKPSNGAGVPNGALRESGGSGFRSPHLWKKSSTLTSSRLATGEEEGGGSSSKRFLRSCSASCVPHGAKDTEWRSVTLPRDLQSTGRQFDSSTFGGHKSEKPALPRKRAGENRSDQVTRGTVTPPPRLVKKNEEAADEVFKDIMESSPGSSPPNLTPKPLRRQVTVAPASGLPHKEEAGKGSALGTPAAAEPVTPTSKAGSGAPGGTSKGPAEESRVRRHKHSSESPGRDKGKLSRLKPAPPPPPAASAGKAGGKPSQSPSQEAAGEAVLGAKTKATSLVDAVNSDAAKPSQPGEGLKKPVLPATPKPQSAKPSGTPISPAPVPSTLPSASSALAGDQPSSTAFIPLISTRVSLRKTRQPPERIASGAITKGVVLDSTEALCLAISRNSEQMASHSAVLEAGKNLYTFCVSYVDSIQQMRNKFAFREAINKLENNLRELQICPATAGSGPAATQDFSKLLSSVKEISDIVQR
Sequence of Vascular endothelial growth factor receptor 1 (Homo sapiens) (P17948 whole entry): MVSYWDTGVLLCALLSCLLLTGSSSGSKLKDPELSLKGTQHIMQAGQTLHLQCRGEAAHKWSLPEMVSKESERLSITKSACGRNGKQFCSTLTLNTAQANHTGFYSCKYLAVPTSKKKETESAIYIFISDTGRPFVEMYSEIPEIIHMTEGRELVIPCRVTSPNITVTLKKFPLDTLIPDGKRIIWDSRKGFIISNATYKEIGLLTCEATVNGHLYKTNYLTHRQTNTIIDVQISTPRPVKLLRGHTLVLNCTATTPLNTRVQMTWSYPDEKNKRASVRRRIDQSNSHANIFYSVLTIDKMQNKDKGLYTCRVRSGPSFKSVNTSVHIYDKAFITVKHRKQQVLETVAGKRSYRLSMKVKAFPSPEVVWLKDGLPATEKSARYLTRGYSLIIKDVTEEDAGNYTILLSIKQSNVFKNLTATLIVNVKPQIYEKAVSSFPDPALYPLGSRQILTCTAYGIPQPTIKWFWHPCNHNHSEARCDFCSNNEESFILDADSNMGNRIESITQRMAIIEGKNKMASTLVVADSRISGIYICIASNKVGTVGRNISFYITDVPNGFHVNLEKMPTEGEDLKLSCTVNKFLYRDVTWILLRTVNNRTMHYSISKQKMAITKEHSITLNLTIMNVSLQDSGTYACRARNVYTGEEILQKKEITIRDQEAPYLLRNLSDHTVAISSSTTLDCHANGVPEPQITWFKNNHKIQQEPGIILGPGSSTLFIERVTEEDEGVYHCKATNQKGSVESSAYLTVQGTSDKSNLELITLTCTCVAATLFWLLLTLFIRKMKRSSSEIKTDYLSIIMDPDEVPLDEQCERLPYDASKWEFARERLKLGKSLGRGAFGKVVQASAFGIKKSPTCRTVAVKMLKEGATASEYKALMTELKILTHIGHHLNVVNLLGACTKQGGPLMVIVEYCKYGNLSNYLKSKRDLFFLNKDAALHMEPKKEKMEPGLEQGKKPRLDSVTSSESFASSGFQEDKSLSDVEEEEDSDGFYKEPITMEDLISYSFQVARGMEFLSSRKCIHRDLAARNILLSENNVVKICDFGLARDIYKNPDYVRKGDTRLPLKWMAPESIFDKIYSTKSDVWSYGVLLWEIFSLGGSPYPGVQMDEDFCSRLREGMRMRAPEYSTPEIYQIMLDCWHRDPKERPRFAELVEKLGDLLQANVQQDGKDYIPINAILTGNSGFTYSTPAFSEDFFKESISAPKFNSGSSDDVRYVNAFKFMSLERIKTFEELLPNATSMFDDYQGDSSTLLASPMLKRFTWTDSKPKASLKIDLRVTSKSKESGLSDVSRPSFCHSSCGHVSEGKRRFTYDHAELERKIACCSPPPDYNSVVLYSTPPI
Sequence of Aurora kinase B (Homo sapiens) (Q96GD4 whole entry, canonical isoform): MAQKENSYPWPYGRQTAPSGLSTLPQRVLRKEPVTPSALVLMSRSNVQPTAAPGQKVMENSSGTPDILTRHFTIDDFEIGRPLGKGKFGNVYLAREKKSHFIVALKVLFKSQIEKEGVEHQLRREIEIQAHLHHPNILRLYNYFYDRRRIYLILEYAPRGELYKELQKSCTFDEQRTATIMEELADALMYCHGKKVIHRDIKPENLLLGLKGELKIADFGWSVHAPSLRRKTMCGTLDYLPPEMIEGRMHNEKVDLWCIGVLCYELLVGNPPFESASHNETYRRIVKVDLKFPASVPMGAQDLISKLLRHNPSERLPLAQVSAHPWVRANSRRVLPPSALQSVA
Sequence of Insulin-like growth factor 1 receptor (Homo sapiens) (P08069 31-736 limits assumed): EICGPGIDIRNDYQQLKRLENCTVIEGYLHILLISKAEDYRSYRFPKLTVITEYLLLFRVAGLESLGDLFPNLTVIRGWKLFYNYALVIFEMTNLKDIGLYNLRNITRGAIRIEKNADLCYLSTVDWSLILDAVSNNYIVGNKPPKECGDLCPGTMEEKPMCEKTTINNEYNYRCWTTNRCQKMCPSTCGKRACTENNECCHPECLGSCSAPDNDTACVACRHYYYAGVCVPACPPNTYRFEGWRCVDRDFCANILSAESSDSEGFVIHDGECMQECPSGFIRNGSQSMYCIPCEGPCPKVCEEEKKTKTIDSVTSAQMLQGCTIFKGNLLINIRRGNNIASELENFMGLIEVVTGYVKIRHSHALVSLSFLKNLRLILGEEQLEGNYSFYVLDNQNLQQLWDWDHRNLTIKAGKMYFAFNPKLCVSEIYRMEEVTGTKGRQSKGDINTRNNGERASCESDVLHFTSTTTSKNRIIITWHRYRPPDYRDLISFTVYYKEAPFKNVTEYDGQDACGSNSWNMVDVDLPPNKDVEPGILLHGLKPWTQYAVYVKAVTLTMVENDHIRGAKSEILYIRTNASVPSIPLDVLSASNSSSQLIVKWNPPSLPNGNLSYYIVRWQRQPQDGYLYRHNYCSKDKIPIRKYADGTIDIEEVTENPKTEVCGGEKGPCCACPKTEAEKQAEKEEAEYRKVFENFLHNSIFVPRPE
Sequence of Insulin-like growth factor 1 receptor (Homo sapiens) (P08069 741-1367 limits assumed): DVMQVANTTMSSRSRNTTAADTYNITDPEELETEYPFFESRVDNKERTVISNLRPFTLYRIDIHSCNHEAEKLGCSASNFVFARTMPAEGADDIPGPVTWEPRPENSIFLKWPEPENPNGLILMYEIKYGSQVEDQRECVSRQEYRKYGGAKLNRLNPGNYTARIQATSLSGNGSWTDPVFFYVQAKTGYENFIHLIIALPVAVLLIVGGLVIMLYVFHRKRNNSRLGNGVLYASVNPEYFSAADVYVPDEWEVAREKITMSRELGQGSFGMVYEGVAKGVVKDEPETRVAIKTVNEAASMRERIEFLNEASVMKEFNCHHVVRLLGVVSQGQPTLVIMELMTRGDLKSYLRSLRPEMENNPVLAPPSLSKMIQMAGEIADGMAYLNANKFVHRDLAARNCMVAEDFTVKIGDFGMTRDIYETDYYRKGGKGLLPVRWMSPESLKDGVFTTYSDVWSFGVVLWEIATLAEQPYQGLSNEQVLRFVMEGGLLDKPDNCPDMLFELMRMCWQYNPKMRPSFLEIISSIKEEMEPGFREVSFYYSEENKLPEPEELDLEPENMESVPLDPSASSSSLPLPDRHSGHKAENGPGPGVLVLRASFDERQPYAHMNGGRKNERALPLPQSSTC
Sequence of Casein kinase I isoform alpha (Homo sapiens) (P48729 2-337 limits assumed): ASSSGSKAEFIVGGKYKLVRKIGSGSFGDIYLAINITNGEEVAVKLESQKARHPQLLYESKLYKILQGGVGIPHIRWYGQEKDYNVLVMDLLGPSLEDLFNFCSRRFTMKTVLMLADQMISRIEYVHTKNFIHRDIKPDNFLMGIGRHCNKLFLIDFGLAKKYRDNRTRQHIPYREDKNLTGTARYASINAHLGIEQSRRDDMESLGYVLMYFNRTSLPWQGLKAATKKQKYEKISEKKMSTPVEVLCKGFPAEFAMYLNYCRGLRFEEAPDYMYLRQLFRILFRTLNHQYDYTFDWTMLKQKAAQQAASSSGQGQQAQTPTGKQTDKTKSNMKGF

- inhibition [1]: 22.7%
- inhibition [2]: 4.4%
- inhibition [3]: 2.1%
- inhibition [4]: 16.4%
- inhibition [5]: 11.1%
- IC50 [6]: 2200 nM
- inhibition [7]: 3%
- IC50 [8]: 500 nM
- inhibition [9]: 0%
- IC50 (SH-SY5Y [10]): > 100000 nM
- inhibition [12]: 12.6%
- inhibition [13]: 26.5%
- inhibition [15]: 0%
- inhibition [16]: 13.8%
- IC50 [17]: 1400 nM
- inhibition [18]: 0%
- inhibition [19]: 12.6%
Compound: Nc1nccc(-c2cn(C(=O)N3CCOCC3)c3ccc(Br)cc23)n1
- viability at 50 µM (SH-SY5Y [11]): 86.4%
- viability at 24 h, 30 µM [14]: 87%
